Results on 16 molecules are retold here after paper PMC13083723 (Patterns, 2026).

The test system of one assay is Vero-E6 cells. As to the kind of experiment: cells. It is filed as cell-based. The following applies: for activation at 10 µM: Chlorocebus sabaeus, Vero C1008, 24 h, read-out: PLD_Effect(%) VERO-E6.
The next assay has as its system A549-ACE2 cells. As to the kind of experiment: cells. The assay is classed as cell-based. To be noted: for activation at 10 µM: A549-ACE2, 24 h, read-out: PLD_Effect(%) A549-ACE2.
For assay [1] the following is noted: cited from earlier work; for IC50: read-out: IC50 (value); for Ki: read-out: Ki (value).
The mark [2] stands for this setting: value is the negative log10 of mol/L.

Structures are written as SMILES. “And” between values parts separate entries of the source, which are not always exact repeats. Identical values can stand only once. Counter-ions that a name gives are not always drawn. Like-named read-outs stand apart in the source and are kept apart here.

As to `CN1C2CCC1CC(OC(c1ccc(F)cc1)c1ccc(F)cc1)C2` (stereo not drawn), the activation at 10 µM in the assay with Vero-E6 cells stood at 61.5%. In addition, in the assay with A549-ACE2 cells, the activation at 10 µM was 76.3%. In addition, in assay [1], the “Log 1/Ki (value)” value is 7.86 and the “pchembl_value (Log 1/Ki)” value was 7.86. In assay [1] (setting [2]), the “pchembl_value (Ki)” value is 6.84 and 6.07 and 7.94.
For the molecule `C[C@H](Oc1cc(-c2cnn(C3CCNCC3)c2)cnc1N)c1c(Cl)ccc(F)c1Cl` [(S)-crizotinib], the activation at 10 µM in the assay with Vero-E6 cells was 70.2%. Further, the activation at 10 µM with A549-ACE2 cells is 102%. Besides, in assay [1], the IC50 (commonly the midpoint of a concentration-inhibition curve) is 680 nM and the Ki – broadly, the equilibrium dissociation constant of an inhibitor or competing ligand from its target – is 161 nM. Moreover, in assay [1] (setting [2]), the “pchembl_value (IC50)” value is 6.86 and 6.17; the “pchembl_value (Kd)” value is 7.43 and 6.28 and 7.41; the “pchembl_value (Ki)” value is recorded as 6.79.
On to `Nc1nc2c(c(N3CCNCC3)n1)CCC1=C2[C@@H]2CCCC[C@@H]2O1` [A-987306], for which the activation at 10 µM in the assay with Vero-E6 cells is 70.7%; in the assay with A549-ACE2 cells, 52.2%. Further, in assay [1], the “pKi (value)” value is on record as 7.1. The “pchembl_value (pKi)” value in assay [1] is 7.10. The “pchembl_value (IC50)” value in assay [1] (setting [2]) was 8.41 and 10.06 and 8.24.
As for `C[C@@H]1CCCN1CCc1cc2cc(-c3ccc(C#N)cc3)ccc2o1` [ABT 239 tartrate], the results for the activation at 10 µM with Vero-E6 cells and with A549-ACE2 cells were 66.8% and 67.4%, respectively. For the same molecule, the Ki in assay [1] was 0.45 nM.
`CCN(CCCc1ccccc1)CCCc1ccccc1` [ALVERINE CITRATE]: the results for the activation at 10 µM in the assay with Vero-E6 cells and with A549-ACE2 cells were 58.9% and 63.7%, respectively. The AC50 – broadly, the concentration giving half of the maximal activity seen – in assay [1] was 29 nM.
`CN1CCCC(n2nc(Cc3ccc(Cl)cc3)c3ccccc3c2=O)CC1` (stereo not drawn) [AZELASTINE HYDROCHLORIDE]: in the assay with Vero-E6 cells, the activation at 10 µM was found to be 57.2%. In addition, in the assay on A549-ACE2 cells, the activation at 10 µM came out at 57.3%. Moreover, in assay [1], the “pIC50 (value)” value is given as 7.0, the “pchembl_value (AC50)” value is recorded as 7.62, the “pchembl_value (pIC50)” value is 7.00 and the IC50 is 1000 nM. The half-maximal activity concentration (AC50) in assay [1] (read-out: AC50 (value)) was 24 nM. Further, in assay [1] (setting [2]), the “pchembl_value (IC50)” value is reported as 6.00.
`COc1cc2c(cc1O)C(CCc1ccc(Cl)cc1)N(C)CC2` (stereo not drawn) [Ro-04-5595]: the activation at 10 µM with Vero-E6 cells was found to be 64%; with A549-ACE2 cells it was 61%.
Take `C[C@H](N)Cn1ccc2cc(F)c(Cl)cc21` [Ro-60-0175 fumarate]: the activation at 10 µM stood at 50.7% with Vero-E6 cells and 82.7% in the assay on A549-ACE2 cells.
Turning to `COc1ccc2[nH]c3c(-c4cccc5ccccc45)nccc3c2c1` [SP-141, reference compound], the result_ITMP in the assay with Vero-E6 cells came to 16.13 percent effect. Further, in the assay on A549-ACE2 cells, the result_KI is -11.253 percent effect.
For the molecule `O=C(O[C@H]1CN2CCC1CC2)N(Cc1cc(F)c(F)c(F)c1)c1cccc(F)c1` [Tarafenacin (D-tartrate)], the activation at 10 µM came out at 71.4% in the assay with Vero-E6 cells and 91.5% in the assay on A549-ACE2 cells.
As to `O[C@H]([C@H](O)[C@@H]1CO1)[C@H]1CO1` [VAL-083, reference compound], the result_ITMP with Vero-E6 cells was -1.6 percent effect. The result_KI in the assay with A549-ACE2 cells was -10.5072 percent effect.
`Cc1nc2ccc(Oc3ccc(F)cc3)cc2c(=O)n1C[C@H]1CCCN(C(C)C)C1` [YIL-781]: the values for the activation at 10 µM in the assay on Vero-E6 cells and with A549-ACE2 cells were 56.3% and 52.7%, respectively.
As to `CN1CC2c3ccccc3Oc3ccc(Cl)cc3C2C1` (stereo not drawn) [asenapine maleate], the activation at 10 µM in the assay with Vero-E6 cells stood at 65.2%; in the assay on A549-ACE2 cells, 66.1%.
In the case of `Clc1ccc2c(c1)N=C(N1CCNCC1)c1ccccc1N2` [desmethylclozapine], the activation at 10 µM was determined as 77.7% in the assay with Vero-E6 cells and 89.5% with A549-ACE2 cells.
In the assay with Vero-E6 cells, `CCc1cc(Cl)c(OC)c(C(=O)NC[C@@H]2CCCN2CC)c1O` [eticlopride, reference compound] showed a result_ITMP of 41.39 percent effect. Besides, in the assay with A549-ACE2 cells, the result_KI is listed as 92.2773 percent effect.
As to `CCSc1ccc2c(c1)N(CCCN1CCN(C)CC1)c1ccccc1S2` [thiethylperazine], the figures for the activation at 10 µM with Vero-E6 cells and in the assay with A549-ACE2 cells were 59.1% and 98%, respectively.
